The supplement of paper PMC10920090

Legend:
[1] = tested on: MDA-MB-231; assay: drug sensitivity score (DSS), cytotoxicity CellTox Green; higher = more cytotoxic; extreme values may be limits of the assay; conditions: 72 h
[2] = tested on: MDA-MB-231; assay: drug sensitivity score (DSS), cell viability CellTiter-Glo; higher = more sensitive; extreme values may be limits of the assay; conditions: 72 h
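For drug sensitivity score (DSS), cytotoxicity CellTox Green in this document: DSS summarises each dose–response curve by combining IC50, EC50, maximal inhibition and efficacy across drug concentrations.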

Compound | drug sensitivity score ([1]; shRNA: shPPFIA1_1) | drug sensitivity score ([1]; shRNA: shScramble) | drug sensitivity score ([2]; shRNA: shPPFIA1_1) | drug sensitivity score ([2]; shRNA: shScramble)
CCc1cc(Nc2nccc(-c3c(-c4ccc(OC)c(C(=O)Nc5c(F)cccc5F)c4)nc4ccccn34)n2)c(OC)cc1N1CCC(N2CCN(S(C)(=O)=O)CC2)CC1 | 0 DSS | 0 DSS | 2.9 DSS | 2.4 DSS
CCc1cncnc1N1CCN(Cc2nc3ccc(C(F)(F)F)cc3[nH]2)CC1 | 0.6 DSS | 0 DSS | 0 DSS | 1.3 DSS
CCn1c(-c2nonc2N)nc2cnc(Oc3cccc(NC(=O)c4ccc(OCCN5CCOCC5)cc4)c3)cc21 | 0 DSS | 0 DSS | 0 DSS | 1.5 DSS
CCn1c(C(=O)N(C2CC2)C2CC2)cc2c3c(ncn3C)c(Nc3cc(C)n(C)n3)nc21 | 0 DSS | 0 DSS | 0 DSS | 0 DSS
CCn1cc(-c2ccnc3[nH]c(-c4cccc(CN(C)C)c4)cc23)c(-c2ccc(NC(=O)N(C)C)cc2)n1 | 0 DSS | 6.4 DSS | 3.9 DSS | 0 DSS
CN(c1ccccc1CNc1nc(Nc2ccc3c(c2)CC(=O)N3)ncc1C(F)(F)F)S(C)(=O)=O | 4.1 DSS | 4 DSS | 2.3 DSS | 5.3 DSS
CN1CCC(COc2cnc(-c3cccc(Cn4nc(-c5cccc(C#N)c5)ccc4=O)c3)nc2)CC1 | 0 DSS | 0 DSS | 0 DSS | 0 DSS
CNC(=O)c1ccc(C)c(-n2c(C)cc(OCc3ccc(F)cc3F)c(Br)c2=O)c1 | 0 DSS | 0 DSS | 0 DSS | 0 DSS
CNc1nc(-c2ccc3c(N)n[nH]c3c2)cc(N2C[C@@H](C(=O)NC3CCCCC3)CC[C@H]2C)n1 | 0 DSS | 0 DSS | 0 DSS | 3.6 DSS
COc1ccc(-c2cc3c(C)nc(N)nc3n([C@H]3CC[C@H](OCCO)CC3)c2=O)cn1 | 1.1 DSS | 2.4 DSS | 0 DSS | 6.2 DSS
C[C@@H](Oc1cc(-n2cnc3ccc(CN4CCN(C)CC4)cc32)sc1C(N)=O)c1ccccc1C(F)(F)F | 10 DSS | 7 DSS | 1.5 DSS | 5.2 DSS
C[C@@H](Oc1ccc2[nH]nc(/C=C/c3cnn(CCO)c3)c2c1)c1c(Cl)cncc1Cl | 0 DSS | 0 DSS | 0 DSS | 4.8 DSS
C[C@@]1(C(=O)Nc2ccc(F)nc2)CCCN1c1nc(Nc2cc(C3CC3)n[nH]2)c2cccn2n1 | 0.8 DSS | 0 DSS | 0.2 DSS | 3.7 DSS
Cc1c(Cn2c(C)nc3c(C(=O)O)cc(N4CCOCC4)cc32)cccc1C(F)(F)F | 0 DSS | 0 DSS | 3.6 DSS | 2.8 DSS
Cc1c(NC(=O)OC[C@@H]2COCCN2)cn2ncnc(Nc3ccc4c(cnn4Cc4cccc(F)c4)c3)c12 | 0 DSS | 0 DSS | 1.2 DSS | 2.4 DSS
Cc1ccc(C(=O)N(CCCN)[C@@H](c2oc3cc(Cl)ccc3c(=O)c2Cc2ccccc2)C(C)C)cc1 | 9.8 DSS | 8.7 DSS | 0 DSS | 6.3 DSS
Cc1nc(Nc2n[nH]c3c2CN(C(=O)N[C@H](CN(C)C)c2ccccc2)C3(C)C)c2sccc2n1 | 5.8 DSS | 4.8 DSS | 5.6 DSS | 10.1 DSS
Cn1cc(C2=Nc3cc(NC(=O)C(N)C4CCCCC4)cc4c3C2=CNNC4=O)cn1 (stereo not drawn) | 3 DSS | 0.8 DSS | 7.8 DSS | 9.4 DSS
N#Cc1ccc(COC[C@H]2O[C@@H](n3c(NCc4ccc(Cl)c(Cl)c4)nc4c(N)ncnc43)[C@H](O)[C@@H]2O)cc1 | 0 DSS | 0 DSS | 2.3 DSS | 1.7 DSS
Nc1nccc(-c2c(-c3ccc(F)cc3)ncn2C2CCCCC2)n1 | 0 DSS | 0 DSS | 0 DSS | 0 DSS
Nc1ncnc2c1c(COc1cccc(Cl)c1)nn2C1CCOCC1 | 0 DSS | 0 DSS | 0 DSS | 1.2 DSS
O=C(NOCC1CC1)c1ccc(F)c(F)c1Nc1ccc(I)cc1Cl | 6.2 DSS | 8.5 DSS | 1.8 DSS | 7.7 DSS
O=C(NOC[C@H](O)CO)c1ccc(F)c(F)c1Nc1ccc(I)cc1F | 2 DSS | 4.7 DSS | 0 DSS | 9.8 DSS
O=C(O)c1ccc(-c2c[nH]c3ncc(-c4ccccc4)cc23)cc1C1CCCC1 | 0 DSS | 0 DSS | 0 DSS | 0 DSS
O=c1cc(N2CCOCC2)oc2c(-c3ccccc3)cccc12 | 0.1 DSS | 2.4 DSS | 1.7 DSS | 0 DSS
Oc1c2ccccc2c2c3c(cccc13)N=N2 | 0 DSS | 0 DSS | 0 DSS | 0.5 DSS
Cc1ccc(C(=O)Nc2ccc(CN3CCN(C)CC3)c(C(F)(F)F)c2)cc1C#Cc1cnc2cccnn12 [Ponatinib] |  |  | 0.1 DSS | 3.6 DSS
CCC(C)(C)C(=O)O[C@H]1C[C@@H](C)C=C2C=C[C@H](C)[C@H](CC[C@@H]3C[C@@H](O)CC(=O)O3)[C@H]21 [Simvastatin] |  |  | 0 DSS | 2.8 DSS
